The supplement of paper PMC12420376

Columns and labels:
OVCAR8 = assay: drug sensitivity score (DSS2) on cancer cell count; higher = more sensitive; extreme values may be limits of the assay; settings: 72 h
In short: (§1)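 Ovarian cancer cells were grown alone or in 1:1 direct co-culture with lung or skin fibroblasts. They were plated onto 384-well plates pre-spotted acoustically with 528 approved and investigational compounds at 5 concentrations, then treated for 72 h. Cells were fixed, immunostained for CK8/18 with Hoechst, and imaged at 10× (4 fields) to count cancer cells. A drug sensitivity score (DSS2) was derived in Breeze from 4-parameter logistic fits, with screen quality checked by Z'.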

KURAMOCHI = assay: as above; settings: 72 h
In short: as §1

[1] = co-cultured fibroblast: BJHTERT
[2] = co-cultured fibroblast: none (monoculture)

SMILES	drug sensitivity score (OVCAR8; [1]) [DSS]	drug sensitivity score (OVCAR8; co-cultured fibroblast: WI38) [DSS]	drug sensitivity score (OVCAR8; [2]) [DSS]	drug sensitivity score (KURAMOCHI; [1]) [DSS]	drug sensitivity score (KURAMOCHI; co-cultured fibroblast: WI38) [DSS]	drug sensitivity score (KURAMOCHI; [2]) [DSS]
CCN(CC)CCOc1ccc(C(=C(Cl)c2ccccc2)c2ccccc2)cc1 [Clomifene]	4.3	10.1	1.9	3.7	5.6	7.9
CO[C@H]1C[C@@H]2CC[C@@H](C)[C@@](O)(O2)C(=O)C(=O)N2CCCC[C@H]2C(=O)O[C@H]([C@H](C)C[C@@H]2CC[C@@H](OCCO)[C@H](OC)C2)CC(=O)[C@H](C)/C=C(\C)[C@@H](O)[C@@H](OC)C(=O)[C@H](C)C[C@H](C)/C=C/C=C/C=C/1C [Everolimus]	8.4	0	2.2	5.6	5.6	0
CC(C)c1c(C(=O)Nc2ccccc2)c(-c2ccccc2)c(-c2ccc(F)cc2)n1CC[C@@H](O)C[C@@H](O)CC(=O)O [Atorvastatin]	4	11.7	6	3.1	2.1	1.9
CNC(=O)c1ccc(N2C(=S)N(c3cnc(C#N)c(C(F)(F)F)c3)C(=O)C23CCC3)cc1F [Apalutamide]	0	0	0	0	0	0
CN(C)Cc1c(C(=O)NCCOc2ccc(C(=O)NO)cc2)oc2ccccc12 [Abexinostat]	25.3	18.5	27.9	17.2	20.6	15.7
C[C@@H](Oc1cc(-n2cnc3ccc(CN4CCN(C)CC4)cc32)sc1C(N)=O)c1ccccc1C(F)(F)F	42.4	32.3	31	28	27.7	25.3
CC1CCC(n2c3cnccc3c3cnc(Nc4ccc5c(n4)CCN(C(=O)CO)C5)nc32)CC1 (stereo not drawn) [AMG-925]	0	0	0	0	2.2	0
CC(C)(C)NC(=O)[C@H]1CC[C@H]2[C@@H]3CC[C@H]4NC(=O)C=C[C@]4(C)[C@H]3CC[C@]12C [Finasteride]	2.1	0	0	0	0	0
CC(=O)O[C@H]1C(=O)[C@@]2(C)[C@H]([C@H](OC(=O)c3ccccc3)[C@]3(O)C[C@H](OC(=O)[C@H](O)[C@@H](NC(=O)c4ccccc4)c4ccccc4)C(C)=C1C3(C)C)[C@]1(OC(C)=O)CO[C@@H]1C[C@@H]2O [Paclitaxel]	29.6	30.9	24	23.2	24.5	16.1
Cc1ccc(NC(=O)c2ccc(CN3CCN(C)CC3)cc2)cc1Nc1nc(-c2cccnc2)cs1 [Masitinib]	3.9	0.2	0.2	2	1.6	0
C[C@@H](C(=O)O)c1ccc(-c2ccccc2)c(F)c1 [Tarenflurbil]	0.7	0	0	0	0	0
Cc1ccc(-n2nc(C(C)(C)C)cc2NC(=O)Nc2ccc(OCCN3CCOCC3)c3ccccc23)cc1 [Doramapimod]	4.4	0.1	1.4	4.2	3.4	2.8
CN(C)CCOc1ccc(/C(=C(/CCCl)c2ccccc2)c2ccccc2)cc1 [Toremifene]	3.2	0	3.5	2.1	0.8	2.3
Clc1ccccc1C(c1ccccc1)(c1ccccc1)n1cccn1 [TRAM-34]	0	0	0	0	0	0
Cn1cnc2c(F)c(Nc3ccc(Br)cc3F)c(C(=O)NOCCO)cc21 [Binimetinib]	2.4	0	4	2.2	0	0
COc1cc2c(cc1OC(C)C)[C@H](c1ccc(Cl)cc1)N(c1ccc(N(C)C[C@H]3CC[C@H](N4CCN(C)C(=O)C4)CC3)cc1)C(=O)C2 [NVP-CGM097]	10.1	11.1	3.5	7.7	3.4	5.4
C[C@H](Nc1ncnc2[nH]cnc12)c1cc2ccc(F)cc2nc1-c1ccccn1 [AMG319]	0	5.8	0	1.2	0	0
COc1cc(OC2CCN(C)CC2)ccc1Nc1ncc2c(n1)n(C1CCCC1)c(=O)n2C [AZ 3146]	8.3	9.6	4.3	1.8	3.2	1.5
CC(C)(C)C[C@@H]1N[C@@H](C(=O)N[C@H]2CC[C@H](O)CC2)[C@H](c2cccc(Cl)c2F)[C@]12C(=O)Nc1cc(Cl)ccc12	2.5	0	0	0	0.1	0
CCN1CCN(c2ccc(Nc3cc(N(C)C(=O)Nc4c(Cl)c(OC)cc(OC)c4Cl)ncn3)cc2)CC1 [Infigratinib]	0	0	0	0	0	0
CC(C)C[C@H](NC(=O)[C@@H](COC(C)(C)C)NC(=O)[C@H](Cc1ccc(O)cc1)NC(=O)[C@H](CO)NC(=O)[C@H](Cc1c[nH]c2ccccc12)NC(=O)[C@H](Cc1cnc[nH]1)NC(=O)[C@@H]1CCC(=O)N1)C(=O)N[C@@H](CCCNC(=N)N)C(=O)N1CCC[C@H]1C(=O)NNC(N)=O [Goserelin]	0	0	0	0	0	0
CNC(=O)c1ccc(N2C(=S)N(c3ccc(C#N)c(C(F)(F)F)c3)C(=O)C2(C)C)cc1F [Enzalutamide]	0	0	2.2	0	0	1.3
CC1=C(/C=C/C(C)=C/C=C/C(C)=C/C(=O)O)C(C)(C)CCC1 [Tretinoin]	0	0	0	0	0	8.2
CCc1nc(C(N)=O)c(Nc2ccc(N3CCC(N4CCN(C)CC4)CC3)c(OC)c2)nc1NC1CCOCC1 [Gilteritinib]	1.5	0	0	0.4	0	0

SMILES	drug sensitivity score (OVCAR8; [1]) [DSS]	drug sensitivity score (OVCAR8; co-cultured fibroblast: WI38) [DSS]	drug sensitivity score (OVCAR8; [2]) [DSS]	drug sensitivity score (KURAMOCHI; [1]) [DSS]	drug sensitivity score (KURAMOCHI; co-cultured fibroblast: WI38) [DSS]	drug sensitivity score (KURAMOCHI; [2]) [DSS]
CC(C)C(=O)Nc1ccc([N+](=O)[O-])c(C(F)(F)F)c1 [Flutamide]	0	0	0	0	1.3	0
CCc1c(C(=O)C(N)=O)c2c(OCC(=O)O)cccc2n1Cc1ccccc1 [Varespladib]	0	0	3.4	0	0	0
Cc1c2oc3c(C)ccc(C(=O)N[C@@H]4C(=O)N[C@H](C(C)C)C(=O)N5CCC[C@H]5C(=O)N(C)CC(=O)N(C)[C@@H](C(C)C)C(=O)O[C@@H]4C)c3nc-2c(C(=O)N[C@@H]2C(=O)N[C@H](C(C)C)C(=O)N3CCC[C@H]3C(=O)N(C)CC(=O)N(C)[C@@H](C(C)C)C(=O)O[C@@H]2C)c(N)c1=O [Dactinomycin]	31.6	32.4	31.8	25.7	25.9	34
O=C(O)c1ccc(CN2CCC(CN[C@@H]3C[C@H]3c3ccccc3)CC2)cc1	0	0	2.2	0.9	0	0
CC(=O)OC[C@H]1O[C@@H]([S-])[C@H](OC(C)=O)[C@@H](OC(C)=O)[C@@H]1OC(C)=O.CCP(CC)CC.[Au+] [Auranofin]	12.1	8.8	7.3	9.3	7	8.1
COc1c(C)cnc(Cn2cnc3c(Cl)nc(N)nc32)c1C [BIIB021]	21.5	21.8	24	13.6	21.1	15.6
C=C(c1ccc(C(=O)O)cc1)c1cc2c(cc1C)C(C)(C)CCC2(C)C [Bexarotene]	0	0	0	0.4	0	15.5
CCCCCCCCCCCCCCCCOP(=O)([O-])OCC[N+](C)(C)C [Miltefosine]	8.4	7.3	5.7	4.4	7.4	5
CN[C@@H](C)C(=O)N[C@H](C(=O)N1CCC[C@H]1c1nc(C(=O)c2ccc(F)cc2)cs1)C1CCCCC1 [NVP-LCL161]	34.7	27.7	23.2	4	1.9	2.5
CC[C@@H]1C(=O)N(C)c2cnc(Nc3ccc(C(=O)NC4CCN(C)CC4)cc3OC)nc2N1C1CCCC1 [BI 2536]	29.5	25.6	29.1	21.7	25.7	21.1
CC(=O)[C@]1(O)Cc2c(O)c3c(c(O)c2[C@@H](O[C@H]2C[C@H](N)[C@H](O)[C@H](C)O2)C1)C(=O)c1ccccc1C3=O [Idarubicin]	17.6	19.3	22.1	14.5	14.4	27.8
CC#CC(=O)N1CC[C@@H](n2c(=O)n(-c3ccc(Oc4ccccc4)cc3)c3c(N)ncnc32)C1 [Tirabrutinib]	0	0	0	1.4	0	0
CCC1(c2ccc(N)cc2)CCC(=O)NC1=O (stereo not drawn) [Aminoglutethimide]	0	0.4	0	5.8	0	0
Nc1ccn([C@@H]2O[C@H](CO)[C@@H](O)C2(F)F)c(=O)n1 [Gemcitabine]	29.5	27.2	26.3	18.4	25.2	26.7
CCCCNc1ncc(C(=O)NCc2ccc(-n3ccnc3)cc2)c(NC2CCC(O)CC2)n1 (stereo not drawn) [UNC2881]	0.2	1.1	0	2.4	3	0.4
CN(C)C1CCN(C(=O)c2ccc(NC(=O)Nc3ccc(-c4nc(N5CCOCC5)nc(N5CCOCC5)n4)cc3)cc2)CC1 [Gedatolisib]	8.7	2	8.2	16.8	16	21.3
CONC(=O)c1ccccc1Nc1cc(Nc2cc(C)nn2C(C)C)ncc1Cl	0.8	4.2	0	3.3	0	0.2
O=C(Nc1ccc2[nH]nc(-c3ccncc3)c2c1)[C@@H]1CCN(CC(=O)N2CCN(c3ccc(-c4ncccn4)cc3)CC2)C1	16.6	10.2	15.5	13.5	12.4	15.5
CN1CC[C@@H](NC(=O)Nc2ccc(C#N)cc2)C[C@@H]1c1nc2ccccc2[nH]1 [Glasdegib]	0	0	0	0.5	1.1	0
C[C@H]1Oc2cc(cnc2N)-c2c(nn(C)c2C#N)CN(C)C(=O)c2ccc(F)cc21	0.4	8.7	5.7	0.7	0	0
Cc1c(-c2c(-c3ccc(F)o3)sc3ncnc(O[C@H](Cc4ccccc4OCc4ccnn4CC(F)(F)F)C(=O)O)c23)ccc(OCCN2CCN(C)CC2)c1Cl	0	0	0	0	0	0
COc1cc(C)[nH]c(=O)c1CNC(=O)c1c(C)n([C@H](C)C2CCOCC2)c2ccccc12 [CPI-360]	0	0	0	0	5.4	0.7
C[C@H]1C[C@@H]2[C@H]([C@@H](O)C[C@@]3(C)[C@H]2CC[C@]3(O)C(=O)CO)[C@@]2(C)C=CC(=O)C=C12 [Methylprednisolone]	0	0	8.1	0	0	9.8
CC1(C)OCCn2c1nc1c(N3CCOCC3)nc(-c3cnc(N)nc3)nc12 [GDC-0084]	8.3	3.8	11.9	12.7	11.5	12.1
